The results in this text go back to PMC8151848, “Tambjamines and Prodiginines: Biocidal Activity against Trypanosoma cruzi” (Pharmaceutics, 2021).

Like-named read-outs stand apart in the source and are kept apart here.

For data set [1], the system named is murine L-929 fibroblasts (NCTC clone 929). Put plainly: Cytotoxicity assay (resazurin) in L-929 fibroblasts. It counts as cell-based, mouse. An excerpt:
(§1) Mouse L-929 fibroblasts (NCTC clone 929, ECACC 88102702) were used for both drug toxicity and infection assays. Cell line was obtained from Dr. Concepció Soler, Dept. Pathology & Experimental therapeutics, Faculty of Medicine and Health Sciences, University of Barcelona, Spain. Human hepatocarcinoma Hep G2 cells (American Type Culture Collection (ATCC HB-8065)) were employed only in the drug toxicity assays and were obtained from Dr. Neus Agell, Cell Biology Research Group, Faculty of Medicine and Health Sciences, University of Barcelona, Spain.
(§2) Cells were seeded by trypsinization in 96-well microplates (L-929: 4 × 10^3 cells/well; Hep G2: 1.5 × 10^4 cells/well) and incubated for 24 h at 37 °C to allow cell attachment. On the following day, the medium was discarded and replaced with a fresh medium containing the different concentrations of the drugs. Hep G2 cells were treated with concentrations of 100, 10, and 1 µM of the different drugs, while L-929 cells were treated with a wider range of concentrations in order to calculate the IC50 value (the drug concentration that inhibits 50% of cell growth). Medium, growth, and drug blanks were used in each test as controls. Plates were incubated again for another 24 h. After treatment, 20 µL of resazurin diluted in 1X phosphate-buffered saline (PBS; Sigma Aldrich) was added at a final concentration of 70 µM. The plates were incubated for another 24 h, after which fluorescence was measured in a microplate reader (FLUOstar OPTIMA, BMG LABTECH GmbH, Ortenberg, Germany) at an excitation wavelength of 530 nm and an emission wavelength of 590 nm. Each concentration was tested in triplicate and the experiments were repeated three times independently. Results indicated the percentage of toxicity (% T value). (3) % Toxicity=100−(AE−AEB)/(AC−ACB)×100 where AE is the absorbance of the experimental group, AEB the absorbance of the drug blank, AC the absorbance of the untreated cells, and ACB the absorbance of the culture medium blank. For the L-929 fibroblasts, the IC50 values (the drug concentration that inhibits 50% of cell growth) were calculated for each compound using the GraphPad Prism software.
A general note: Resazurin is reduced to fluorescent resorufin, in cell work by metabolically active cells.

Data set [2] concerns human hepatocarcinoma cells (Hep G2). Put plainly: Cytotoxicity assay (resazurin) in Hep G2 cells. The conditions noted are these: for Cytotoxicity (% cell growth inhibition) at 1 µM ± SD: Hep G2, 1 µM. It counts as cell-based.
Excerpt: as §1
as §2, with “Hep G2 cells were treated with concentrations of 100, 10, and 1 µM of the different drugs, while L-929 cells were treated with a wider range of concentrations in order to calculate the IC50 value (the drug concentration that inhibits 50% of cell growth).” left out, “For the L-929 fibroblasts, the IC50 values (the drug concentration that inhibits 50% of cell growth) were calculated for each compound using the GraphPad Prism software.” left out

For data set [3], the system named is epimastigotes of T. cruzi (CL strain, clone B5). Briefly: Epimastigote susceptibility assay (monotherapy). It counts as cell-based, Trypanosoma cruzi. Here is the method:
The CL-B5 strain was stably transfected with the Escherichia coli β-galactosidase gene (lacZ) and routinely maintained in exponential growth by weekly passages. Trypomastigotes of the CL-B5 strain were obtained as previously reported.
The screening assays were performed in 96-well microplates (WWR Int LLC) containing serially diluted concentrations of each compound and seeded with 2.5 × 10^5 epimastigotes/mL harvested during the exponential growth phase. Growth, medium, and drug blanks were used in each assay as controls. An internal control of the reference drug, benznidazole, was also included. After 72 h at 28 °C, 50 µL of the substrate chlorophenol red-β-D-galactopyranoside (CPRG; Roche) diluted in 0.9% Triton X-100 solution (EMD, Darmstadt, Germany) were added at a final concentration of 200 µM. Then, after 3 h at 37 °C, measurements were performed in a scanning multiwell spectrophotometer (ELISA Multiskan Reader, BioTek Instruments, Inc., Winooski, VT, USA) at 595 nm. Each concentration was tested in triplicate and the experiments were performed three times independently. The efficacy of the compounds was calculated by determining the percentage of epimastigote growth (% EG value) as follows:(1) % Epimastigote growth=(AE−AEB)/(AC−ACB)×100 where AE is the absorbance of the experimental group, AEB the absorbance of the drug blank, AC the absorbance of the control group, and ACB the absorbance of the culture medium blank. The IC50 values (the drug concentration that eliminates 50% of the parasites) were determined for each compound using the GraphPad Prism software (Version 5.0.0 for Windows, GraphPad Software, San Diego, CA, USA).

The mark [4] stands for this setting: Mus musculus, L929, read-out: IC50 (µM) L-929 cell growth inhibition.
[5] abbreviates: Homo sapiens, HepG2, read-out: IC50 (µM) Hep G2 cell growth inhibition.
Where [6] appears, read: IC50 for L-929 fibroblasts / IC50 for T. cruzi epimastigotes.
The mark [7] stands for this setting: Trypanosoma cruzi, CLB strain, 72 h at 28 °C, mean ± SD, read-out: IC50 (µM) in epimastigotes of T. cruzi.

Usually IC50 stands for the concentration needed to halve the response being measured. In the case of `O=C(Cn1ccnc1[N+](=O)[O-])NCc1ccccc1` [Benznidazole, reference compound], the half-maximal inhibitory concentration (IC50) in data set [1] (setting [4]) was 1372.3 ± 0.5 µM; in data set [2] (setting [5]), over 100 µM; in data set [3] (setting [7]), 19 ± 7.07 µM. Besides, the “Selectivity index (SI), Epimastigotes” value in data set [3] (setting [6]) came to 72.37.
On the same counts, the results for `CCc1c(-c2ccc[nH]2)[nH]c(/C=N/C2CCCCC2)c1C` [MM3] are 12.2 ± 0.28 µM, 46 ± 8.15 µM, 4.52 ± 1.43 µM and 2.70.
On the same counts, the results for `CCc1c(-c2ccc[nH]2)[nH]c(/C=N/c2ccc(C(C)(C)C)cc2)c1C` [MM4] are 14 ± 1.28 µM, 52.5 ± 9.21 µM, 5.08 ± 0.62 µM and 2.76.
Consider `CCCCCC1=C/C(=C/c2[nH]c(-c3ccc[nH]3)cc2OC)N=C1C` [Natural prodigiosin, prodigiosin], for which the IC50 was determined as 5 ± 0.83 µM in data set [1] (Mus musculus, L929, read-out: IC50 (µM) L-929 cell growth inhibition, L-929); 6.02 ± 0.5 µM in data set [2] (read-out: IC50 (µM) Hep G2 cell growth inhibition, Hep G2); 0.54 ± 0.25 µM in data set [3] (read-out: IC50 (µM) in epimastigotes of T. cruzi, CLB strain, 72 h at 28 °C, mean ± SD). Further, in data set [2] (n = 9), the “Cytotoxicity (% cell growth inhibition) at 1 µM ± SD” value is 2.29 ± 3.97%. In addition, the “Cytotoxicity (% cell growth inhibition) at 10 µM ± SD” value in data set [2] (Hep G2, 10 µM, n = 9, 10 µM) stood at 87.97 ± 5.94%. Also, the “Selectivity index (SI), Epimastigotes” value in data set [3] (setting [6]) turned out to be 9.25.
For `COC1=CC(c2cc3ccccc3[nH]2)=N/C1=C\c1[nH]c(C)cc1C` [Obatoclax, reference compound], the IC50 is 5.83 ± 1.07 µM in data set [1] (setting [4]), 8.18 ± 1.87 µM in data set [2] (setting [5]) and 3.46 ± 0.96 µM in data set [3] (setting [7]). The “Selectivity index (SI), Epimastigotes” value in data set [3] was 1.68.
Regarding `CCCCCC1=C/C(=C/c2[nH]c(-c3ccc[nH]3)cc2OC)N=C1C` [Synthetic prodigiosin, prodigiosin], the “% Cytotoxicity ± SD” value in data set [1] (L-929, 16 µM, n = 9, 16 µM) was determined as 95.75 ± 0.06%. The IC50 in data set [1] (read-out: IC50 (µM) L-929 cell growth inhibition, L-929) came to 3.06 ± 0.01 µM; in data set [2] (Homo sapiens, HepG2, read-out: IC50 (µM) Hep G2 cell growth inhibition, Hep G2), 5.15 ± 0.39 µM; in data set [3] (Trypanosoma cruzi, 72 h, read-out: IC50 (µM) in epimastigotes of T. cruzi, CLB strain, 72 h at 28 °C, mean ± SD), 0.46 ± 0.03 µM. For the same molecule, in data set [2] (n = 9), the “Cytotoxicity (% cell growth inhibition) at 1 µM ± SD” value is 15 ± 6.12%. Also, the “Selectivity index (SI), Epimastigotes” value in data set [3] (setting [6]) is 6.65.
